# US11492347B2 (ENYO PHARMA, priority 2018, dated 2022)
# How the values were obtained:
# [1] = system: H1N1 (influenza A/New Caledonia/20/99); assay: microbe, parasite or virus in culture; format: cell-based; settings: H1N1, A549, 48 h
# [2] = molecular target: T1, CISD2 Gene Product (NAF-1) (Homo sapiens, UniProt Q8N5K1); assay: Stability of Fe-S cluster binding of purified NEET protein (absorbance 458 nm); format: biochemical; settings: NAF-1 20 μM, compound 60 μM; for Time (in minutes) to achieve 50% loss of bound cluster (Absorbance 458 nm): pH 6, 37° C., run time 500 minutes, vehicle control 310 or 210; for Residual cluster bound at end of experiment (Percentage Absorbance 458 nm at time zero): pH 6, at 500 minutes, vehicle control 3%
# T1 sequence (Q8N5K1 57-135 limits assumed): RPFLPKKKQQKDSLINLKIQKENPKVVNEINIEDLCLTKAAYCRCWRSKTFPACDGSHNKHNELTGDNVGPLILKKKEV
# Summary of the method: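 Purified NEET protein (20 μM) with compound (60 μM, 1:3 molar ratio) in 100 mM Bis-Tris pH 6, 100 mM NaCl, 66 μM DMSO at 37 °C; 458 nm absorbance decay read every 5 min for 500 min (NAF-1) or 180 min (mitoNEET, Miner2). Outputs: time to 50% absorbance loss and residual % bound cluster, versus protein alone.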
# [3] = system: UXF 1138; assay: Cytotoxicity, propidium iodide based monolayer assay; format: cell-based; settings: 96 h; UXF 1138 uterine sarcoma, four days of treatment, T/C=50%; read-out: Absolute IC50
# Description: The cytotoxicity was tested for compounds of the invention on five different cell-lines, namely LXFL 1121, MAXF 401, MMXF L-636, PRXF PC-3M and UXF 1138 which are respectively lung large cell carcinoma, breast adeno carcinoma, multiple myeloma, prostate adeno carcinoma and uterine sarcoma.
# A working stock solution of the test compounds was prepared in DMSO at a concentration of 33 mM or 8.25 mM, and small aliquots were stored at −20° C. On each day of an experiment, a frozen aliquot of the working stock solution was thawed and stored at room temperature prior to and during treatment.
# All liquid handling steps were performed using the Tecan Freedom EVO 200 platform. First, serial 2-fold dilutions of the 33 mM DMSO working stock solution were done in DMSO. The DMSO dilutions were then diluted 1:22 into cell culture medium in an intermediate dilution plate. Finally, 10 μl taken from the intermediate dilution plate were transferred to 140 μl/well of the final assay plate. Thus, the DMSO serial dilutions were diluted 1:330 with cell culture medium, and the DMSO concentration in the assay was 0.3% v/v.
# Cell lines were routinely passaged once or twice weekly and maintained in culture for up to 20 passages. Most cell lines were grown at 37° C. in a humidified atmosphere with 5% CO2 in RPMI 1640 medium (25 mM HEPES, with L-glutamine, #FG1385, Biochrom, Berlin, Germany) supplemented with 10% (v/v) fetal calf serum (Sigma, Taufkirchen, Germany) and 0.05 mg/mL gentamicin (Life Technologies, Karlsruhe, Germany).
# A modified propidium iodide (PI) based monolayer assay was used to assess the anti-cancer activity of the compounds. Briefly, cells were harvested from exponential phase cultures, counted and plated in 96 well flat-bottom microtiter plates at a cell density of 4,000 to 40,000 cells/well dependent on the cell line's growth rate. The individual seeding density for each cell line ensure exponential growth conditions over the whole or at least the bigger part of the treatment period. After a 24 h recovery period, to allow the cells to resume exponential growth, 10 μl of culture medium (6 control wells/cell line/plate) or of culture medium with test compounds were added. Compounds were applied at ten concentrations in 2-fold increments in duplicates up to 25 μM or 100 μM and treatment continued for four days. After four days of treatment, cells were next washed with 200 μl PBS to remove dead cells and debris, then 200 μl of a solution containing 7 μg/ml propidium iodide (PI) and 0.1% (v/v) Triton X-100 was added. After an incubation period of 1-2 hours at room temperature, fluorescence (FU) was measured using the Enspire Multimode Plate Reader (excitation λ=530 nm, emission k=620 nm) to quantify the amount of attached viable cells.
# Drug effects were expressed in terms of the percentage of the fluorescence signal, obtained by comparison of the mean signal in the treated wells with the mean signal of the untreated controls (expressed by the test-versus-control value, T/C−value [%]):
# [formula] IC values reported reflect the concentration of the test compound that achieves T/C=50%. Calculation was done by 4 parameter non-linear curve fit.
SMILES,IC50 [1] [nM],Time (in minutes) to achieve 50% loss of bound cluster (Absorbance 458 nm) [2],Residual cluster bound at end of experiment (Percentage Absorbance 458 nm at time zero) [2],IC50 [3] [nM]
"CC1(C)Cc2c(sc(NC(=O)c3ccc(N4CCOCC4)cc3)c2C(=O)O)C(C)(C)C1 [Compound #36, 5,5,7,7-Tetramethyl-2-[(4-morpholinobenzoyl)amino]-4,6-dihydrobenzothiophene-3-carboxylic acid]",40.1,210 (210) minutes,30% (3%),988
"CC1(C)CCc2sc(NC(=O)c3ccccc3)c(C(=O)O)c21 [Compound #37, 2-Benzamido-4,4-dimethyl-5,6-dihydrocyclopenta[b]thiophene-3-carboxylic acid]",196,280 (210) minutes,3% (3%),9420
"COC1CN(c2ccc(C(=O)Nc3sc4c(c3C(=O)O)CC(C)(C)CC4(C)C)cc2)C1 [Compound #58, 2-[[4-(3-Methoxyazetidin-1-yl)benzoyl]amino]-5,5,7,7-tetramethyl-4,6-dihydrobenzothiophene-3-carboxylic acid]",0.9,280 (310) minutes,39% (3%),819
